Read-outs that look alike come from different tables or passages of the source.
Experiments:
[1] = Pharmacokinetics test using mice; format: in vivo; conditions: male, Balb/C, mouse, plasma; for Cmax: read-out: C0/Cmax; for Vd: iv, 1 mg/kg
Protocol: 6 to 8 week-old male Balb/C mice weighing 22-29 g were acclimatized for about 1 week, and then 12 mice for each group were divided into an intravenous administration group and an oral administration group and used in the experiment. The mice were fasted before administration of the compound and were allowed to drink water ad libitum. Feed was provided 2 hours after administration of the compound.
A preparation for intravenous injection (0.2 mg/mL) was prepared by dissolving 1.264 mg of the compound of Example 9 in 6.257 mL of DMSO: a mixed solution of solutol and ethanol (1:1): physiological saline (5:5:90% v/v). A preparation for oral administration (1 mg/mL) was prepared by suspending 5.916 mg of the compound of Example 9 in 5.857 mL of 0.5% methyl cellulose (0.5:99.5% v/v) containing 0.1 Tween 80.
The compound of Example 9 was administered at a dose of 1 mg/kg for intravenous administration and at a dose of 10 mg/kg for oral administration using an oral zonde.
In the case of intravenous administration, blood was collected at 5 minutes, 15 minutes, 30 minutes, 1 hour, 2 hours, 4 hours, 8 hours and 24 hours after administration of the compound. In the case of oral administration, blood was collected at 15 minutes, 30 minutes, 1 hour, 2 hours, 4 hours, 8 hours, 10 hours and 24 hours after administration of the compound. Plasma was separated from the collected blood, and the content of compounds in blood was measured by LC-MS/MS method, and PK parameters were calculated using Phoenix software ver.8.1.

Chk2 kinase = Chk2 kinase (Homo sapiens (Human), UniProt O96017); assay: Chk2 kinase inhibitory activity (LanthaScreen TR-FRET); format: biochemical; conditions: graded
Outline: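 Recombinant Chk1 or Chk2 was mixed with substrate and compound, and the reaction was started with ATP and run 1 h at room temperature. Phosphorylation was detected with a Tb-labelled anti-CREB pSer133 antibody for 30 min, read as the TR-FRET Em520/Em490 ratio. IC50 was fitted from duplicate-well means.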

[2] = test system: human breast cancer cell line MCF-7; assay: Cancer cell growth inhibition test (CellTiter-Glo); format: cell-based; conditions: Homo sapiens, MCF7, 72 h, MCF-7, 72 hours, graded; read-out: Celltiter glo analysis (IC50)
Outline: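 MCF-7 cells (about 3000/well) pre-incubated 24 hours at 37° C, then exposed 72 hours to serially diluted compound, alone or combined with cisplatin or doxorubicin. Viability read by CellTiter-Glo luminescence as % of DMSO-only wells; values are means of three wells.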

Chk1 kinase = Chk1 kinase (Homo sapiens (Human), UniProt O14757); assay: Chk1 kinase inhibitory activity (LanthaScreen TR-FRET); format: biochemical; conditions: graded
Protocol: The compounds of Examples 1 to 66 were diluted at various concentrations and transferred to a 384-well plate by 5 μl, and 10 μl of a mixed solution (2×) of Chk1 kinase (Thermo, P3040) or Chk2 kinase (Thermo, PV3367) and a substrate (Thermo, PV3508) was added to wells treated with the compounds. 5 μl of an ATP solution at a 4× concentration was added to the test well and reacted at room temperature for 1 hour. 20 μl of LanthaScreen Terbium-CREB p-Ser 133 antibody (Thermo, PV3542) was added to the reaction well and incubated at room temperature for 30 minutes. Conversion data was measured by an EnVision 2014 multi label reader (PerkinElmer). The activity for each concentration was determined by the ratio (FRET ratio=FR) of the value obtained by dividing the value at 520 nm by the value at 490 nm among the emission wavelength values for each wavelength (Em520/Em490). The results obtained for each concentration of the compounds were the average values obtained in two wells, and the IC50 values of the compounds were calculated using PRIZM software for analysis of the results. IC50 in Table 7 was graded as follows.

Sequence of Chk1 kinase (O14757 whole entry): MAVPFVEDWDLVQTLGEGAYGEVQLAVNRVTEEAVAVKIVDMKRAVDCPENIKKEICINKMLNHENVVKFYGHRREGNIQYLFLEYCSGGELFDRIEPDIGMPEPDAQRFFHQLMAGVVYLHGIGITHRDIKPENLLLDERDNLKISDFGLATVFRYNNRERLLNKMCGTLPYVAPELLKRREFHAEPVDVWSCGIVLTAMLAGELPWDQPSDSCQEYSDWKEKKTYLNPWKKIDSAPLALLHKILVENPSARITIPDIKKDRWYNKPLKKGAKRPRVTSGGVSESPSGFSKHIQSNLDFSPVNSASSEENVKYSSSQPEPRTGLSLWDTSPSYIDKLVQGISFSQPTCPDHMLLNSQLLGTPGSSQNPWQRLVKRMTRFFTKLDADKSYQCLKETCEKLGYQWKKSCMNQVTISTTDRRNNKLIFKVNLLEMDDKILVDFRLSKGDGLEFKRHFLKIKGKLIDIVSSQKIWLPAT
Sequence of Chk2 kinase (O96017 whole entry): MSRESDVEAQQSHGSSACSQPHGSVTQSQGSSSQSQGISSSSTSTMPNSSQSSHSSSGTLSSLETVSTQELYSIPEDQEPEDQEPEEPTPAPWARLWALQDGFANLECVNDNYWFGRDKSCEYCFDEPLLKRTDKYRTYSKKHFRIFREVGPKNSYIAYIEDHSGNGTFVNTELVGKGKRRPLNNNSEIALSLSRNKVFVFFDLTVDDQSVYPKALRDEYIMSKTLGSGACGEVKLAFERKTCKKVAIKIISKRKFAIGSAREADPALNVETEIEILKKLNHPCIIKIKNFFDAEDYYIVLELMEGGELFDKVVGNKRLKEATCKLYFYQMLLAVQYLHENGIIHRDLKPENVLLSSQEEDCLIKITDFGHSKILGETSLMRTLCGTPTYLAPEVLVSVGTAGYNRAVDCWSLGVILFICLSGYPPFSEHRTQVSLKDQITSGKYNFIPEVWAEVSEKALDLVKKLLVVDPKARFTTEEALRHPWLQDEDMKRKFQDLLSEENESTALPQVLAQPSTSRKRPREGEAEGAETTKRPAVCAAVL

IC50 (Chk2 kinase) [nM]	IC50 [2] [nM]	IC50 (Chk1 kinase) [nM]	Compound	also measured
10 to 100	10000 to 100000		Nc1ncc(-c2cc(-c3cnn(CC(F)(F)F)c3)ccc2F)nc1C(=O)N[C@@H]1CNC[C@@H](F)C1 [Example 9, 3-amino-6-(2-fluoro-5-(1-(2,2,2-trifluoroethyl)-1H-pyrazol-4-yl)phenyl)-N-((3S,5S)-5-fluoropiperidin-3-yl) pyrazine-2-carboxamide]	AUC(0-inf) ([1]; IV (1 mg/kg)): 298 ng·h/mL; AUC(0-t) ([1]; IV (1 mg/kg)): 267 ng·h/mL; clearance ([1]; IV (1 mg/kg)): 56.2 mL/min/kg; half-life ([1]; IV (1 mg/kg)): 1.36 h; Cmax ([1]; IV (1 mg/kg)): 231 ng/mL; bioavailability ([1]; PO 10 mg/kg vs IV 1 mg/kg, read-out: Oral bioavailability (% F)): 59%; AUC(0-inf) ([1]; PO (10 mg/kg)): 1770 ng·h/mL; AUC(0-t) ([1]; PO (10 mg/kg)): 1730 ng·h/mL; Tmax ([1]; PO (10 mg/kg)): 0.5 h; half-life ([1]; PO (10 mg/kg)): 1.92 h; Cmax ([1]; PO (10 mg/kg)): 749 ng/mL; Vd ([1]; IV (1 mg/kg), read-out: Vd): 6.59 L/kg; Vd ([1]; IV (1 mg/kg), read-out: Vss): 5.22 L/kg
≤ 10	10000 to 100000	> 1000	CC1(C)Cc2c(-c3nccc(-c4cnc(N)c(C(=O)NC5CNC[C@@H](F)C5)n4)n3)cnn2C1 (stereo partly drawn) [Example 64, 3-amino-6-(2-(5,5-dimethyl-5,6-dihydro-4H-pyrrolo[1,2-b]pyrazol-3-yl)pyrimidin-4-yl)-N-((3S,5S)-5-fluoropiperidin-3-y)pyrazine-2-carboxamide]	
≤ 10	> 100000	> 1000	CC(C)(O)Cn1cc(-c2cccc(-c3cnc(N)c(C(=O)N[C@@H]4CNCC[C@H]4O)n3)c2)cn1 [Example 28, 3-amino-6-(3-(1-(2-hydroxy-2-methylpropyl)-1H-pyrazol-4-yl)phenyl)-N-((3R,4R)-4-hydroxypiperidin-3-yl)pyrazine-2-carboxamide]	
≤ 10	> 100000	10 to 100	Cn1cc(-c2ccc(F)c(-c3cnc(N)c(C(=O)NC4CCC5(CC5)NC4)n3)c2)cn1 (racemic) [Example 40, 3-amino-6-(2-fluoro-5-(1-methyl-1H-pyrazol-4-yl)phenyl)-N-(4-azaspiro[2.5]octan-6-yl) pyrazine-2-carboxamide]	
10 to 100	≤ 10000	> 1000	CC1(C)Cc2c(-c3cccc(-c4cnc(N)c(C(=O)N[C@@H]5CNCC(F)(F)C5)n4)c3)cnn2C1 [Example 59]	
